Measurements from ChEMBL document CHEMBL3639260, “5-membered nitrogen containing heterocyclic derivatives and pharmaceutical compositions comprising the same” (2015).

Biological target: Xanthine dehydrogenase/oxidase (Bos taurus, UniProt P80457)
Experiment: Inhibition Assay: Xanthine oxidase (from bovine milk, Sigma) was prepared with phosphate-buffered saline (PBS) at 0.02 units/mL, and then the solution was added to 96 well plates at 50 μL/well. In addition, test compounds diluted with PBS were added at 50 μL/well. Xanthine (Wako) at 200 μM prepared with PBS was added at 100 μL/well, and the reaction was conducted for 10 minutes at room temperature. Absorbance at 290 nm was measured using a microplate reader SpectraMax Plus 384 (Molecular device). The absorbance under a condition without xanthine is 0%, and control without test compounds is 100%.

Chain of Xanthine dehydrogenase/oxidase (P80457 whole entry): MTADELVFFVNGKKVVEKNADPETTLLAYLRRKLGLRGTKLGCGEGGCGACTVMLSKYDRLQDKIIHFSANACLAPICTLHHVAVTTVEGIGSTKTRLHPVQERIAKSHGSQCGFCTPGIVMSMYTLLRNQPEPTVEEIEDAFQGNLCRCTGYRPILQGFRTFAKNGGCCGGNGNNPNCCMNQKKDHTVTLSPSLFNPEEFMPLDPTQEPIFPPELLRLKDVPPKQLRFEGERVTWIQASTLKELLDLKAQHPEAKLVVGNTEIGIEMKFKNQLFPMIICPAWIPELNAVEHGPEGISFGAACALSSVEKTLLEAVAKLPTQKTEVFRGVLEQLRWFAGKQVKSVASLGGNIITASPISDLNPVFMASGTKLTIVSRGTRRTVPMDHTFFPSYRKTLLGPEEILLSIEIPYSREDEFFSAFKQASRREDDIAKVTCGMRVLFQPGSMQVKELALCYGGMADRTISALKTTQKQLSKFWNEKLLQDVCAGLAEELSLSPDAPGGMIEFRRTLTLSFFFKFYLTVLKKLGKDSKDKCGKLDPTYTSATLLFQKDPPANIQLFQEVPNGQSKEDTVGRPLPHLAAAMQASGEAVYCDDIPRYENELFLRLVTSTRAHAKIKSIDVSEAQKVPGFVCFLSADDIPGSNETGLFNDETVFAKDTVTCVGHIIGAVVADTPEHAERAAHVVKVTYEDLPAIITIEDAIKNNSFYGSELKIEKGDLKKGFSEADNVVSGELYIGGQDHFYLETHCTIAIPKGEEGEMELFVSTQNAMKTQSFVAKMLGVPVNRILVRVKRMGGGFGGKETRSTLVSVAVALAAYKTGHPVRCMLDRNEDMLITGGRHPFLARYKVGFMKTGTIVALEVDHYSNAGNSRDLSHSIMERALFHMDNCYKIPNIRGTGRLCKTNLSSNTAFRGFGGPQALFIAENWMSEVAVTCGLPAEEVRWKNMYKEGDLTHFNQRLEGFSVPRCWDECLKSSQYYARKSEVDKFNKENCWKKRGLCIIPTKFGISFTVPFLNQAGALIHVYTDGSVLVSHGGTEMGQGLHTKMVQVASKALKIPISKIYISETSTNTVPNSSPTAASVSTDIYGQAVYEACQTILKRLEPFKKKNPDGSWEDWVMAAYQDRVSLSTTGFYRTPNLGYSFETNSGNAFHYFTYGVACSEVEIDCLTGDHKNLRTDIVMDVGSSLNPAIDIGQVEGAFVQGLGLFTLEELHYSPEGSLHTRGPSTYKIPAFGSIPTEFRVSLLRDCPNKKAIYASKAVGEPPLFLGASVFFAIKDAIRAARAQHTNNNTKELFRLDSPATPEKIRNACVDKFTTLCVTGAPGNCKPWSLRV

Row | IC50 [µM] | SMILES
1 | 0.047 | N#Cc1cn(-c2ccc(C(=O)O)cc2)cc1-c1ccccc1OCCOc1ccccc1
2 | 0.0632 | N#Cc1cn(-c2ccc(C(=O)O)cc2)cc1-c1ccc(OCCCO)cc1
